From paper doi:10.1101/2025.07.20.665728 (bioRxiv, 2025)

Legend:
hMR1^R9H = target: T1, hMR1^R9H (Homo sapiens, UniProt Q95460, R31H); assay: In vitro refolding of MR1 R9H mutant with ligand; assay type: binding
T1 construct: plasmids encoding for the extracellular domains of MR1, β2m, and the AF-7 TCRα and TCRβ chains; made in house; host or cells: Escherichia coli BL21(DE3), inclusion bodies
Excerpt: (§1) We then tested the effect of the RF catabolites on the expression of two mutant versions of MR1 termed MR1^R9H ([Howson et al., 2020]) and MR1^K43A ([Reantragoon et al., 2013]). First, we tested the MR1^R9H mutant ([Howson et al., 2020]) which represents a rare, natural human polymorph. […] When C1R. […] Next, we tested sought to understand how the previously characterised Lys43A mutation affects ligand binding. […] While this is in line with the ability of these ligands to bind MR1, the reason for MR1^K43A cell surface accumulation is less clear. The most likely explanation is that these ligands bind ER-resident MR1^K43A, in line with our data using wild-type MR1; however, because the K43A mutation results in spontaneous MR1 surface egress, the presence of these stabilising ligands promotes enhanced trafficking and/or retention at the cell surface. We cannot rule out however that the ligands may also bind directly to surface MR1^K43A and slow down the recycling from cell surface.
Escherichia coli BL21(DE3) cells were transformed with plasmids encoding for the extracellular domains of MR1, β2m, and the AF-7 TCRα and TCRβ chains ([Kjer-Nielsen et al., 2012]; [Patel et al., 2013]; [Wang et al., 2022a]). The proteins were then expressed, and the inclusion bodies were purified, cleaned, and used for refolding. […]

MAIT cells in human PBMC = assay: MAIT cell proliferation in CTV-labeled PBMCs; assay type: cell-based; details: day 7, 5-OP-RU 10 μM, RF ligands 100 μM
C1R.MR1 cells = assay: Endo H treatment and western blot of intracellular MR1; assay type: cell-based; details: C1R.MR1, 16 h; RF and catabolites 100 μM, Ac-6-FP 10 μM
Method: The downregulation of MR1 on the cell surface by the RF catabolites could be due to the depletion of the intracellular ER-resident MR1 pool, or by retention of MR1 in the ER, as shown for the DB28 ligand ([Salio et al., 2020]). To investigate this, C1R.MR1 cells were treated for 16 h with 100 μM of RF or RF catabolites, conditions which induce MR1 downregulation (Fig. 3A). Cells were lysed, and treated with endoglycosidase (Endo) H, to distinguish molecules that remain within the ER from those that have trafficked to the cell surface ([McWilliam et al., 2016]), then MR1 levels were assessed by immunoblotting (Fig. 3A).
Figure 3. […] S, Endo H–susceptible MR1; R, Endo H–resistant MR1. The Endo H–susceptible MR1 and Endo H–resistant MR1 fractions were quantified in at least two independent experiments. (b) Intracellular total MR1 level was also measured in C1R.MR1 cells by flow cytometry after treating the cells with the indicated ligands (100 μM) for 16h followed by permeabilization and staining with anti-MR1-PE (8F2.F9). Shown are the overlay histograms (top) and a bar chart depicting the geometric mean fluorescence intensity (gMFI) fold change of intracellular MR1 level (bottom) from three independent experiments performed in duplicates, with standard error (SEM) represented by the error bars. […]

C1R.MR1^R9H cells = assay: Cell surface MR1 R9H quantification, C1R.MR1^R9H; assay type: cell-based
Excerpt: as §1
The level of MR1 expressed on the cell surface was measured after the exposure to the investigated ligands as previously described ([Awad et al., 2020a]; [Wang et al., 2022a]). […] The PE fluorescence intensity reflects the surface MR1 level. The data was acquired with an LSRFortessa X-20 (BD Biosciences) and Diva software (BD Biosciences) and analyzed using FlowJo software (BD Biosciences).

refolding with hMR1^R9H in solution (hMR1^R9H) | SMILES | MAIT cell proliferation (MAIT cells in human PBMC) | Endo H-resistant MR1 (C1R.MR1 cells) | MR1^R9H surface level (C1R.MR1^R9H cells)
did not refold | Cc1cc2nc3[nH]c(=O)[nH]c(=O)c3nc2cc1C [Lumichrome, 7,8-dimethylalloxazine] | significantly reduced MAIT cell proliferation |  | 
 | Cc1cc2nc3c(=O)[nH]c(=O)nc-3n(C[C@H](O)[C@H](O)[C@H](O)CO)c2cc1C [RF, Riboflavin] |  | Neither RF nor its catabolites induced any Endo H-resistant MR1 | did not deviate from the background level
